How the values were obtained:
[1] = molecular target: T1, human kynurenine aminotransferase I (hKAT I) (Homo sapiens, UniProt Q16773); experiment: transamination assay, HPLC of KYNA; assay type: biochemical
T1 sequence (Q16773 1-422): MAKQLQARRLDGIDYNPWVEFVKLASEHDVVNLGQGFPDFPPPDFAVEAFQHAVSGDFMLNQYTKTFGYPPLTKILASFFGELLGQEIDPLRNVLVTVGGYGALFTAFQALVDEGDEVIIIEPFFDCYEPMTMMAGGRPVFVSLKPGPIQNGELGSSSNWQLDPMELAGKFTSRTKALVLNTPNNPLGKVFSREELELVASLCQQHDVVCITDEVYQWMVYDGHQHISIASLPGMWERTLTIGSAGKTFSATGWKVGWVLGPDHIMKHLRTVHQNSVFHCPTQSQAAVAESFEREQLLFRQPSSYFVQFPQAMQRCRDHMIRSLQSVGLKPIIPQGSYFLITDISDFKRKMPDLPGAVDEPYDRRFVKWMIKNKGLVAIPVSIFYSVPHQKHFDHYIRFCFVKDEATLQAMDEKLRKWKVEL

[2] = molecular target: T1, human kynurenine aminotransferase I (hKAT I); experiment: co-crystal structure at […] Å; assay type: binding
[3] = molecular target: T1, human kynurenine aminotransferase I (hKAT I); experiment: transamination assay, HPLC of KYNA; assay type: biochemical; remark: listed apart in the source

Row | Structure (SMILES) | transamination assay, HPLC of KYNA (0.08-10 mM); competing substrate [1] | further results
1 | O=C(O)C(=O)Cc1c[nH]c2ccccc12 [indole-3-pyruvic acid] | Figure 6B shows the inhibitions of tryptophan and indole-3-pyruvic acid | 
2 | N[C@@H](Cc1c[nH]c2ccccc12)C(=O)O [tryptophan] | Figure 6B shows the inhibitions of tryptophan and indole-3-pyruvic acid | 
3 | NC(CO)(CO)CO [Tris] |  | co-crystal structure at 1.50 Å (one of two subunits) [2]: Tris lies near the PLP cofactor and that the Tris amine does not form an external aldimine with PLP
4 | O=C(O)/C=C/c1c[nH]c2ccccc12 [trans-3-indoleacrylic acid] |  | transamination assay, HPLC of KYNA (0.08-10 mM) [3]: All six of the chemicals strongly inhibited hKAT I

Reference: publication PMC2844090 (Journal of medicinal chemistry, 2009)
